From article PMC3693846 (Cellular and molecular neurobiology, 2013) come the findings set out here.

The assay relates to L-type voltage-gated calcium channel (subtype not resolved). In kind it is cell-based.

Take `CC(C)n1cnc2c(NCCCCCCNC(=O)OC(C)(C)C)nc(NCCO)nc21` [CK59, 2-(2-Hydroxyethylamino)-6-aminohexylcarbamic acid tert-butyl ester-9-isopropylpurine]: the “% decrease of current at 50 μM” value is on record as 67.47 % decrease of current at 50 μM.
